From patent US20230201217A1 (priority 2019, published 2023)
Several values for one entry are separate records, joined by “and”; a condition that tells them apart may be missing. Identical values can stand only once. Entries after “also recorded” stand apart in the source; their conditions may differ.

Experiments:
dogs = experiment: Single-dose oral toxicity; format: in vivo, dog
male Sprague-Dawley rats = experiment: Intracranial self-stimulation (ICSS), frequency-rate procedure
monkeys = experiment: Single-dose oral toxicity; format: in vivo, monkey
Protocol: (§1) Single doses up to 300-400 mg/kg and 800 mg/kg appeared to be generally well tolerated in monkeys and rats, respectively (one monkey treated with 400 mg/kg died in the 2-week GLP study on Day 1 of dosing). […] In mice, mortality was consistently seen following single doses 150 mg/kg. Preliminary 5-day repeat-dose range-finding studies were conducted in mice, rats and monkeys. The definitive 14-day studies in mouse and monkey yielded generally similar results to those observed in the 5-day studies.

male Sprague Dawley rats = experiment: Modified Irwin test, definitive GLP study, male rats; format: in vivo, rat
Protocol: Only male rats were utilized in the assay, as no significant sex-specific effects have been noted in prior toxicology studies.
The dose volume for all groups was 20 mL/kg. Observations for the Irwin test were performed pre-dose (on the day of dosing) and at approximately (±5 minutes) 30, 90, 150, and 240 minutes post-dosing. Body temperature was measured and recorded during each Irwin observation period.

mouse liver = experiment: In vivo comet assay
Protocol: The comet assay (alkaline single cell gel electrophoresis) is a microgel electrophoretic technique that detects DNA damage in individual cells. DNA damage can be expressed as DNA single strand breaks, double strand breaks, and strand breaks induced by alkali labile sites. […] For this study, the liver was selected as the tissue for evaluation, since this tissue is expected to contain high concentrations of parent drug and metabolites following oral administration.
Male mice were administered oral doses of 0 (vehicle=5% dextrose), 50, 90 and 120 mg/kg/day by gavage according to the table below. Animals in groups 1-4 were dosed on three consecutive days and euthanized 3 to 4 hours after the last dose by CO2 inhalation. A separate group of animals were dosed with methyl methanesulfonate (MMS) which served as a positive control. Immediately following euthanasia, the liver was removed and collected from each animal.
In this study, comet tail migration, % tail DNA (also known as % tail intensity) and tail moment were determined for each animal/treatment group and served as parameters of DNA damage.

rats = experiment: Single-dose oral toxicity; format: in vivo, rat
Protocol: as §1

[1] = Toxicokinetics, 14-day study in cynomolgus monkeys; format: in vivo, cynomolgus monkey
Protocol: The animals received 400 mg/kg on Day 1 and thereafter 300 mg/kg/day. The relative concentrations of the metabolites and 18-MC were determined by the peak-heights by UPLC/MS/MS method. Major metabolites were identified as M5>>M2>>P2. Metabolite M4 was on the borderline to be considered a major metabolite. The parent 18-MC exposure was less than 3% of the total drug and metabolite exposure.
Assessments of neurobehavioral effects and general toxicity were based on mortality, functional observational battery (FOB) evaluations, clinical observations, body weight, and body temperature; ophthalmoscopic, electrocardiographic examinations; and anatomic and clinical pathology. The anatomical pathology evaluations included histopathology of a full list of tissues from all animals and a comprehensive evaluation of the central nervous system (including selected peripheral nerves) utilizing whole body perfusion and special stains. Bone marrow smears from all animals were evaluated microscopically. Complete differentials and myeloid-erythroid (ME) ratios were performed. Toxicokinetic assessment was conducted for the test article and metabolites.
Systemic exposure to […] was independent of sex. […] The following discussion is therefore based on data for males and females combined.

plasma protein = experiment: Plasma protein binding; format: in vitro ADME, Human
From the text: There is no information on the protein binding of any of the metabolites.

hERG potassium channel = biological target: T1, hERG potassium channel (Homo sapiens, UniProt Q12809); experiment: In vitro hERG channel inhibition assay, stably transfected CHO cells, voltage clamp; format: cell-based; details: average of 3 recordings; read-out: IC50, hERG current inhibition
T1 construct: expressed in transfected cells; host or cells: CHO, stably transfected
Protocol: The potential for 18-MC to inhibit the hERG potassium channel was evaluated in a stably transfected Chinese Hamster Ovary (CHO) cell line expressing hERG mRNA (FIG. 12). […] Cells were voltage clamped at a holding potential of −80 mV. The hERG current was then activated by a depolarizing step ([…] for 300 ms) and repeated every 12 s. 18-MC was prepared from 10 mM methanol stock solutions. The hERG current inhibition was calculated from the average of 3 separate recordings.

CYP2E1 = CYP2E1 (Homo sapiens, UniProt P05181); details: recombinant enzyme
Protocol: Control incubations were performed for each assay with appropriate positive inhibitory controls.

[2] = Phase 1 first-in-human study, pharmacokinetics in plasma
Protocol: Fourteen normal, healthy volunteers were enrolled in the study. Seven volunteers were treated in the first cohort (3 placebo, 4 received a single dose of 20 mg of 18-MC) and seven in the second cohort (2 placebo, 5 received 8 mg as 4 mg doses of 18-MC administered at 0 and plus 10 hours). For Cohort A, volunteers were monitored in a hospital unit for 2 days (36 hours) days, and were followed up for safety at Days 3, 7 and 30. For Cohort B, volunteers were monitored in a hospital unit for 2 days (36 hours), and were followed up for safety at Days 3, 4, 7 and 30.
This study was designed as a randomized, double-blind, placebo-controlled, single-center Phase 1 first-in-human clinical trial. After screening, volunteers were admitted to the hospital for 36 hours. […] Study article was initiated on Day 1 and volunteers were discharged on Day 2. Cohort A were seen as outpatients on Days 3, 7 and 30. Cohort B were seen as outpatients on Days 3, 4, 7 and 30. 14 subjects were in the study, 5 male and 9 female.
For Cohort A, pharmacokinetic samples were obtained at baseline and at 0.5, 1.0, 2.0, 6.0, 12.0, 24, 36 hours, and 7 days post dose.
Samples underwent two analyses: A research assay (LG/MS/TOF) developed by MicroConstants, Inc., was used to collect the raw data. The first analysis was to quantitate 18-MG and the known metabolites M2, M4 and M5 (using standard curves included in the run). The second analysis compared the peak heights of 18-MG and all the metabolites that could be identified in terms of relative peak height (M1 through M10, and P1-P3).

[3] = cohort B, 4 mg PO at 0 and +10 hours

T1 sequence (Q12809 whole entry): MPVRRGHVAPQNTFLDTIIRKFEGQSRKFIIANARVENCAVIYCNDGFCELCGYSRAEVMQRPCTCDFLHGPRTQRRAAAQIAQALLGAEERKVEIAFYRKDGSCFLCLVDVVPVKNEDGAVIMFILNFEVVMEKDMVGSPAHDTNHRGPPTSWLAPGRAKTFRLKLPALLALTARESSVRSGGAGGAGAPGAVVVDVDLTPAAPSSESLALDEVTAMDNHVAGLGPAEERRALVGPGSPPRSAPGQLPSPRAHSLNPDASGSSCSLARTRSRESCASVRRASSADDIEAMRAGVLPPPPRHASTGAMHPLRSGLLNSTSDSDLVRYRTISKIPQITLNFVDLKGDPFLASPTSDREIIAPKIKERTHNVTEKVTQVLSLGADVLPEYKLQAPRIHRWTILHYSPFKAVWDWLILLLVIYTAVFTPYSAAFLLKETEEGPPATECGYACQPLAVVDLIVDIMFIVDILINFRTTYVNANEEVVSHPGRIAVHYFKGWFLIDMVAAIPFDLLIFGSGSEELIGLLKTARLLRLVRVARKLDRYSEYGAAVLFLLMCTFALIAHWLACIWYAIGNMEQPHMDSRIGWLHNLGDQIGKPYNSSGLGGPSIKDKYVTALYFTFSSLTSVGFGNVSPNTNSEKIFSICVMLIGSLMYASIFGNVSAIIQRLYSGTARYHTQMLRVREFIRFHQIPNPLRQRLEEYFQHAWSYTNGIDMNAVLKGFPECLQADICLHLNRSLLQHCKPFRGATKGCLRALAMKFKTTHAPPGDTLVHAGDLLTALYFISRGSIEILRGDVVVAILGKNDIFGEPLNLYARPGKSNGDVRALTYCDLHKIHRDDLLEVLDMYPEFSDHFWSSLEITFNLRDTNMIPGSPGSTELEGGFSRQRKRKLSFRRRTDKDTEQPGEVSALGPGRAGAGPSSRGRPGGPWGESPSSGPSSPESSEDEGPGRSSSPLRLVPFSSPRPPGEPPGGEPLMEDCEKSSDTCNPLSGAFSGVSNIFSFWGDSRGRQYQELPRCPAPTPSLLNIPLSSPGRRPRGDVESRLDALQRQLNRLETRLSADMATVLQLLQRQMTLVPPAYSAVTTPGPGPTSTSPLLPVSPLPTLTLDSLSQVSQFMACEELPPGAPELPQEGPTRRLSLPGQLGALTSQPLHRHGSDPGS
CYP2E1, sequence (P05181 whole entry): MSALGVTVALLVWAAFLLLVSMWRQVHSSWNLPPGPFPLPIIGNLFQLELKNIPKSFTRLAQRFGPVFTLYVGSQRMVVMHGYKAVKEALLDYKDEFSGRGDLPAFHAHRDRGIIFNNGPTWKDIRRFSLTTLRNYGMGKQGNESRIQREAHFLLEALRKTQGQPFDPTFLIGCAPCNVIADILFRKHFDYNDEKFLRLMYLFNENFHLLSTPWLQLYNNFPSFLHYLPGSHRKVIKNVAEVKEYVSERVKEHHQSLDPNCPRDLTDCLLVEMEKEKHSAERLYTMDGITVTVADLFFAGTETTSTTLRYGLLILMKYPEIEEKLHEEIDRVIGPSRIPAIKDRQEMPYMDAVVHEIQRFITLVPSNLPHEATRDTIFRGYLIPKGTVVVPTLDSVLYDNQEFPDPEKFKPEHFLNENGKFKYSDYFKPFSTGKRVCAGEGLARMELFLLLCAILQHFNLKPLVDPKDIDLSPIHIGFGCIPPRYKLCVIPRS

SMILES: COCCC1CC2CN3CCc4c([nH]c5ccccc45)C(C(=O)OC)(C2)C13.Cl (stereo not shown) [18-MC HCl, 18-Methoxycoronaridine hydrochloride]
- dose at which emesis was seen (dogs): 100 mg/kg
- M50, Test, mean (SEM) (male Sprague-Dawley rats; 10 mg/kg i.p.): 1.94 (0.02) log/Hz
- Threshold (T0), Test, mean (SEM) (male Sprague-Dawley rats; 10 mg/kg i.p.): 1.80 (0.03) log/Hz
- M50, Test, mean (SEM) (male Sprague-Dawley rats; 40 mg/kg i.p.): 1.95 (0.02) log/Hz
- Threshold (T0), Test, mean (SEM) (male Sprague-Dawley rats; 40 mg/kg i.p.): 1.85 (0.03) log/Hz
- M50, Test, mean (SEM) (male Sprague-Dawley rats; 56 mg/kg i.p.): 1.95 (0.02) log/Hz
- Threshold (T0), Test, mean (SEM) (male Sprague-Dawley rats; 56 mg/kg i.p.): 1.85 (0.02) log/Hz
- effect on ICSS frequency-rate curves, M50 and threshold (T0) (male Sprague-Dawley rats; 10, 40, 56 mg/kg i.p., 45 minutes before test session, hydrochloride): did not affect; also recorded: no main effect
- single dose generally well tolerated (monkeys): 300 to 400 mg/kg
- Irwin: Increased pupil diameter, occurrence(s)/No. of males (male Sprague Dawley rats; 200 mg/kg): 1/6
- Irwin: Increased touch response, occurrence(s)/No. of males (male Sprague Dawley rats; 200 mg/kg): 1/6
- mean decrease in body temperature from pre-dose (male Sprague Dawley rats; 200 mg/kg p.o.): up to 1.5 °C
- Irwin: Abnormal gait (walking low on limbs), occurrence(s)/No. of males (male Sprague Dawley rats; 400 mg/kg): 1/6
- Irwin: Decreased alertness, occurrence(s)/No. of males (observation period, min) (male Sprague Dawley rats; 400 mg/kg): 1/6
- Irwin: Increased pupil diameter, occurrence(s)/No. of males (male Sprague Dawley rats; 400 mg/kg): 1/6
- mean decrease in body temperature from pre-dose (male Sprague Dawley rats; 400 mg/kg p.o.): ≤ 2.3 °C
- Irwin: Abnormal gait (walking low on limbs), occurrence(s)/No. of males (male Sprague Dawley rats; 600 mg/kg): 1/6
- Irwin: Diarrhea, occurrence(s)/No. of males (male Sprague Dawley rats; 600 mg/kg): 1/6
- mean decrease in body temperature from pre-dose (male Sprague Dawley rats; 600 mg/kg p.o.): ≤ 2.3 °C
- Irwin: Abnormal gait (waddling), occurrence(s)/No. of males (observation period, min) (male Sprague Dawley rats; 600 mg/kg, hydrochloride): 1/6 and 2/6 and 3/6 and 4/6
- mean % tail DNA (mouse liver; 90 mg/kg/day, vehicle 1.27+/−0.52): 2.60+/−0.7%
- mouse comet assay result (mouse liver; 50, 90, 120 mg/kg/day, 3 days): negative
- single dose generally well tolerated (rats): ≤ 800 mg/kg

SMILES: COCC[C@H]1CC2CN3CCc4c([nH]c5ccccc45)[C@](C(=O)OC)(C2)[C@H]13 [18-MC, 18-methoxycoronaridine]
- AUC ([1]; Day 14, 300 mg/kg 18-MC HCl): 1.21 µg·h/mL
- Cmax ([1]; Day 14, 300 mg/kg 18-MC HCl): 0.144 µg/mL
- AUC(0-24) ([1]; Day 14, 400 mg/kg 1 day then 300 mg/kg/day, averaged across the sexes): 144 µg·h/mL
- time of median peak plasma concentration ([1]; all dose groups, Days 1 and 14): ≤ 1 h
- % Bound Mean ± SD (plasma protein; 200 ng/mL): 96.8 ± 0.321%
- % Bound Mean ± SD (plasma protein; 600 ng/mL): 97.6 ± 0.153%
- % Bound Mean ± SD (plasma protein; 5,000 ng/mL): 95.2 ± 0.473%
- Average % Bound Mean ± SD (plasma protein; average of 3 concentrations): 96.5 ± 1.22%
- IC50 (hERG potassium channel): 1.46 µM and 1.6 µM
- IC50 (CYP2E1): 28 µM
- elimination half-life ([2]; 4 mg at 0 and +10 hours (8 mg total), longer sampling interval): about 48 hours
- Tmax ([2]; cohort A or B, generally): ½
- AUCall, Average ([2]; cohort A, 20 mg PO single dose): 0.339 µg·h/mL
- AUCall, Max ([2]; cohort A, 20 mg PO single dose): 0.447 µg·h/mL
- AUCall, Min ([2]; cohort A, 20 mg PO single dose): 0.241 µg·h/mL
- Cmax, Average ([2]; cohort A, 20 mg PO single dose): 0.119 µg/mL
- Cmax, Max ([2]; cohort A, 20 mg PO single dose): 0.182 µg/mL
- Cmax, Min ([2]; cohort A, 20 mg PO single dose): 0.092 µg/mL
- Half-Life, Average ([2]; cohort A, 20 mg PO single dose): 17.9 h
- Half-Life, Max ([2]; cohort A, 20 mg PO single dose): 21.7 h
- Half-Life, Min ([2]; cohort A, 20 mg PO single dose): 14.2 h
- Tmax, Average ([2]; cohort A, 20 mg PO single dose): 0.5 h
- Tmax, Max ([2]; cohort A, 20 mg PO single dose): 0.5 h
- Tmax, Min ([2]; cohort A, 20 mg PO single dose): 0.5 h
- AUCall, Average [2, 3]: 0.195 µg·h/mL
- AUCall, Max [2, 3]: 0.4 µg·h/mL
- AUCall, Min [2, 3]: 0.124 µg·h/mL
- Cmax, Max [2, 3]: 0.046 µg/mL
- Cmax, Min [2, 3]: 0.02 µg/mL
- Half-Life, Average [2, 3]: 16.9 h
- Half-Life, Max [2, 3]: 52.2 h
- Half-Life, Min [2, 3]: 3.0 h
- Tmax, Average [2, 3]: 2.55 h
- Tmax, Max [2, 3]: 10.25 h
- Tmax, Min [2, 3]: 0.5 h
